Experimental data: ChEMBL document CHEMBL3867465, “Gastroprotective activity of synthetic coumarins: Role of endogenous prostaglandins, nitric oxide, non-protein sulfhydryls and vanilloid receptors” (2016)

Assays:
Assay type in all cases: functional, Stomach
Mus musculus [1] = test: Gastroprotective activity in Swiss albino mouse assessed as reduction in HCl/EtOH-induced gastric lesions at 20 mg/kg, po pretreated for 50 mins followed by HCl/EtOH challenge measured after 1 hr; design: scale not given: the % may be the effect or the level left
Mus musculus [2] = test: (§1) Gastroprotective activity in Swiss albino mouse assessed as reduction in HCl/EtOH-induced gastric lesions by measuring lesion index at 30 mg/kg, sc pretreated followed by HCl/EtOH challenge measured after 1 hr (reference value: 38.8 +/- 1.6 millimeter)
Mus musculus [3] = test: Gastroprotective activity in Swiss albino mouse assessed as reduction in HCl/EtOH-induced gastric lesions by measuring lesion index at 10 mg/kg, sc pretreated followed by HCl/EtOH challenge measured after 1 hr (reference value: 38.8 +/- 1.6 millimeter)
Mus musculus [4] = test: Gastroprotective activity in Swiss albino mouse assessed as reduction in HCl/EtOH-induced gastric lesions by measuring lesion index at 70 mg/kg, ip pretreated followed by HCl/EtOH challenge measured after 1 hr (reference value: 38.8 +/- 1.6 millimeter)
Mus musculus [5] = test: as §1, with “20” for “30”, “po” for “sc”, “pretreated for 50 mins” for “pretreated”, “hr in presence of PG synthesis inhibitor indomethacin” for “hr”
Mus musculus [6] = test: as §1, with “20” for “30”, “po” for “sc”, “pretreated for 50 mins” for “pretreated”, “hr in presence of NO synthase inhibitor NG-nitro-L-arginine methyl ester” for “hr”
Mus musculus [7] = test: (§2) Gastroprotective activity in Swiss albino mouse assessed as reduction in HCl/EtOH-induced gastric lesions by measuring lesion index at 20 mg/kg, po pretreated for 50 mins followed by HCl/EtOH challenge measured after 1 hr (reference value: 38.8 +/- 1.6 millimeter)
Mus musculus [8] = test: as §2, with “hr in presence of sulfhydryl blocker N-ethylmaleimide” for “hr”
Mus musculus [9] = test: as §2, with “hr in presence of vanilloid receptor antagonist ruthenium red” for “hr”
Mus musculus [10] = test: Gastroprotective activity in Swiss albino mouse assessed as reduction in HCl/EtOH-induced gastric lesions by measuring lesion index at 100 mg/kg, po pretreated for 50 mins followed by HCl/EtOH challenge measured after 1 hr (reference value: 38.8 +/- 1.6 millimeter)

| SMILES | Activity (Mus musculus [1]) [%] | other results |
| --- | --- | --- |
| Cc1cc(=O)oc2cc(O)cc(O)c12 [5,7-DIHYDROXY-4-METHYLCOUMARIN] | 45 |  |
| O=C(O)c1cc2ccc(O)cc2oc1=O | 60 |  |
| COc1cc2ccc(=O)oc2cc1O [SCOPOLETIN] | 61 |  |
| O=c1cc(CCl)c2ccc(O)cc2o1 | 57 |  |
| O=c1ccc2cc(O)c(O)cc2o1 [ESCULETIN] | 17 |  |
| COc1ccc2c(c1)c(CC(=O)O)c(C)n2C(=O)c1ccc(Cl)cc1 [INDOMETHACIN] |  | Activity (Mus musculus [2]): 41.1 mm |
| CC(=O)c1cc2ccc(O)cc2oc1=O | 15 |  |
| CCOC(=O)c1cc2ccccc2oc1=O | 35 |  |
| O=c1cc(CN2CCN(CCO)CC2)c2ccc(O)cc2o1 | 65 |  |
| Cc1c(OCC(F)(F)F)ccnc1C[S+]([O-])c1nc2ccccc2[nH]1 (stereo not drawn) [LANSOPRAZOLE] | 74 |  |
| O=c1cc(CCl)c2c(O)cc(O)cc2o1 | 42 |  |
| O=C(O)Cc1cc(=O)oc2cc(O)ccc12 | 68 |  |
| CCOC(=O)c1cc2cccc(O)c2oc1=O | 15 |  |
| O=C(Oc1ccccc1)c1cc2ccc(O)cc2oc1=O | 63 |  |
| Cc1cc(=O)oc2cc(O)ccc12 [HYMECROMONE] | 31 |  |
| CNCc1cc(=O)oc2cc(O)ccc12 | 49 |  |
| CCN1C(=O)C=CC1=O [N-ETHYLMALEIMIDE] |  | Activity (Mus musculus [3]): 40.1 mm |
| CC(=O)c1cc2ccccc2oc1=O [3-ACETYLCOUMARIN] | 66 |  |
| CCOC(=O)c1cc2cccc(OC)c2oc1=O | 0 |  |
| COC(=O)[C@@H](N)CCCNC(=N)N[N+](=O)[O-] [L-NAME] |  | Activity (Mus musculus [4]): 35.7 mm |
| O=c1cc(CN2CCOCC2)c2ccc(O)cc2o1 [OXAZORONE] | 75 | Activity (Mus musculus [5]): 13.6 mm; Activity (Mus musculus [6]): 34.7 mm; Activity (Mus musculus [7]): 10.3 mm; Activity (Mus musculus [8]): 28.8 mm; Activity (Mus musculus [9]): 14.4 mm |
| CC(=O)c1cc2cccc(O)c2oc1=O | 41 |  |
| CC1(C)[C@@H](OC(=O)CCC(=O)O)CC[C@]2(C)[C@H]3C(=O)C=C4[C@@H]5C[C@@](C)(C(=O)O)CC[C@]5(C)CC[C@@]4(C)[C@]3(C)CC[C@@H]12 [CARBENOXOLONE] |  | Activity (Mus musculus [10]): 13.1 mm |
